Source: US20100035926A1, “PYRAZOLE DERIVATIVES AS NON-STEROIDAL GLUCOCORTICOID RECEPTOR LIGANDS” (priority 2006, published 2010)
Where two headings read alike, the source gives them in different places.

Key:
Progesterone Receptor = molecular target: T1, Progesterone Receptor (Homo sapiens, UniProt P06401); experiment: Assay for Progesterone Receptor Agonist Activity (CV-1 cells, PRb-BacMam, MMTV-BacMam); format: cell-based; details: at least once in this assay, read-out: progesterone receptor agonist pEC50 (converted)
T1 construct: expressed in transfected cells; host or cells: CV-1 cells transduced with PRb-BacMam and MMTV-BacMam
T1 sequence (P06401 1-933): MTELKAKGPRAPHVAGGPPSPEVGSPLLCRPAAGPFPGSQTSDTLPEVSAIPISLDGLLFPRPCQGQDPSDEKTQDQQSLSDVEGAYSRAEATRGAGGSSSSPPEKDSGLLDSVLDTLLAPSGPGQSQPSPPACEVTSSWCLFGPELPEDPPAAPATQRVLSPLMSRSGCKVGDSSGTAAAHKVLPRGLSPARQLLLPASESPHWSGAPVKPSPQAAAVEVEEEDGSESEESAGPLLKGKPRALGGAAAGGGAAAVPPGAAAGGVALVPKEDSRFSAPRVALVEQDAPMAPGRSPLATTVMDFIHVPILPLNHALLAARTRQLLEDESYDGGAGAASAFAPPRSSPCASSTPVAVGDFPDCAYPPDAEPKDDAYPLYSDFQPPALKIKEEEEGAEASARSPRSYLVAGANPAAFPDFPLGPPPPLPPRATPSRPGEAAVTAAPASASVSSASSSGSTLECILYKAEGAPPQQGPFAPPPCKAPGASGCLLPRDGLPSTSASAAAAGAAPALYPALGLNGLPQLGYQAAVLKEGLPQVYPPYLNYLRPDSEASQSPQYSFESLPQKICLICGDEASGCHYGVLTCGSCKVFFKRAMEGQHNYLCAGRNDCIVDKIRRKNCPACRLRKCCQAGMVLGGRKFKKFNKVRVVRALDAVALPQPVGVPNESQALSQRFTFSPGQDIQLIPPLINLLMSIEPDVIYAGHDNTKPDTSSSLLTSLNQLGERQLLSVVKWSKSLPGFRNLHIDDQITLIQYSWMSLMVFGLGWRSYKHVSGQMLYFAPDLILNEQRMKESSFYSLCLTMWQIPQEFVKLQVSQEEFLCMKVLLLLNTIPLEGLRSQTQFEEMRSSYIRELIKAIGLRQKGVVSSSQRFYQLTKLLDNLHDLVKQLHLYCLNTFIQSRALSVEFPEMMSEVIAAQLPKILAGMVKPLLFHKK
Protocol: A T225 flask of CV-1 cells at a density of 80% confluency was washed with PBS, detached from the flask using 0.25% trypsin and counted using a Sysmex KX-21N. Cells were diluted in DMEM containing 10% Hyclone, 2 mM […] and 1% Pen/Strep at 140 cells/μl and transduced with 10% PRb-BacMam and 10% MMTV-BacMam. […] of suspension cells were dispensed to each well of white Nunc 384-well plates, containing compounds at the required concentration. After 24 hr 10 μl of Steadylite were added to each well of the plates. Plates were incubated in the dark for 10 min before reading them on a Viewlux reader. Dose response curves were constructed from which pEC50 values were estimated.

glucocorticoid receptor = molecular target: T2, glucocorticoid receptor (Homo sapiens, UniProt P04150); experiment: Glucocorticoid Receptor Binding Assay (fluorescence polarisation, displacement of Alexa 555 labelled dexamethasone derivative); details: at least once in this assay; read-out: glucocorticoid binding pIC50 (converted)
T2 construct: a partially purified full length glucocorticoid receptor
T2 sequence (P04150 1-777): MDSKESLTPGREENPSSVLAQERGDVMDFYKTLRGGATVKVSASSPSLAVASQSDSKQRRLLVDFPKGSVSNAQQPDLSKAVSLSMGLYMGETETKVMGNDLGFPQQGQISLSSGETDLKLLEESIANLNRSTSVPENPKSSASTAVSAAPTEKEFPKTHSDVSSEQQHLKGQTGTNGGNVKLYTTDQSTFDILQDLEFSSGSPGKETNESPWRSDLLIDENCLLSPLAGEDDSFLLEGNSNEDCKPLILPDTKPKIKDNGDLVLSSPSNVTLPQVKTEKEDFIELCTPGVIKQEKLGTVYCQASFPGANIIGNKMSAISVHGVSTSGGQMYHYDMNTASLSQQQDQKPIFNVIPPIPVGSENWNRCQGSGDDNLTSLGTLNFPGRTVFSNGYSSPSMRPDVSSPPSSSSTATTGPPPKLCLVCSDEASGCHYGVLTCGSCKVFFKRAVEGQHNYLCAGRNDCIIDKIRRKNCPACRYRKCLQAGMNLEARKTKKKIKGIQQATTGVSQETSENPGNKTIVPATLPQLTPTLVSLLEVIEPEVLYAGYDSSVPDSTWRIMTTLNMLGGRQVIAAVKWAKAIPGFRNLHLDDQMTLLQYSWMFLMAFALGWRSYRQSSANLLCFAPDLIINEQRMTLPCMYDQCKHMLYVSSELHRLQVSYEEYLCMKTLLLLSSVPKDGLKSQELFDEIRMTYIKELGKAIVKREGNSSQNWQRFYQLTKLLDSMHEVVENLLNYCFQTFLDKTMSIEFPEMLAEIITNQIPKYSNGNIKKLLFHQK
Protocol: Compounds were solvated and diluted in DMSO, and transferred directly into assay plates. Fluorescent dexamethasone and a partially purified full length glucocorticoid receptor were added to the plates, together with buffer components to stabilise the GR protein and incubated at room temperature for 2 hr in the dark. Binding of each compound was assessed by analysing the displacement of fluorescent ligand by measuring the decrease in fluorescence polarisation signal from the mixture.

GR [1] = molecular target: T3, GR (Homo sapiens, UniProt P04150); experiment: GR Functional Assay - NFκB Assay (A549 SPAP cells, TNFα stimulated); format: cell-based; details: for Emax: agonists, read-out: average maximum asymptote in the NFkB assay
T3 construct: endogenous in cells; host or cells: A549 (human lung carcinoma, ECACC No. 86012804), stably transfected with reporter plasmids only
T3 sequence (P04150 1-777): T2 sequence (P04150 1-777)
Protocol: Stimulation of the cell line with TNFα results in intracellular signal transduction and ultimately translocation of NFκB into the nucleus. This activates the inserted DNA sequence resulting in transcription of the integrated SPAP gene, which is quantified using a calorimetric assay. […] The stably transfected cell line was grown as a monolayer in DMEM supplemented with FCS-HI (10%), Non-essential amino acids (1%), L-Glutamine (2 mM), Pen/Strep (1%) and Geneticin (50 mg/ml).
A 70% confluent T225 flask of A549 SPAP cells was harvested by centrifugation for 5 mins at 200 g, resuspended in assay buffer (DMEM supplemented with 10% FCS 2×HI, 2 mM L-Glutamine, 1% Pen/Strep and Non essential amino acids) and diluted to 0.16×10^6/ml. 60 μl of cell solution was dispensed to each well of clear Nunc 384-well plates, containing compound at the required concentration. […] Plates were equilibrated to room temperature for 1 hr prior to the addition of 25 μl of pNPP buffer (1M Diethanolamine pH 9.8, 0.5 mM MgCl2, 0.28M NaCl, 2 mg/ml pNPP) to each well of assay plates.

GR [2] = molecular target: T3, GR; experiment: GR Agonist Assay - MMTV Assay (A549 MMTV cells, renilla luciferase reporter); format: cell-based; details: 6 h, agonists, read-out: average maximum asymptote in the MMTV agonist assay
Protocol: Stimulation of the cell line with GR agonists results in intracellular signal transduction and ultimately translocation of GR into the nucleus. This activates the inserted DNA sequence resulting in transcription of the integrated luciferase gene, which is quantified using a light emission. The stably transfected cell line was grown as a monolayer in DMEM supplemented with FCS-HI (10%), Non-essential amino acids (1%), L-Glutamine (2 mM), Pen/Strep (1%) and Geneticin (50 mg/ml).
A 90% confluent T175 flask of A549 MMTV cells was harvested by centrifugation for 5 min at 200 g, resuspended in assay buffer (DMEM supplemented with 10% FCS 2×HI, 2 mM Glutamax, Non essential amino acids and 25 mM HEPES) and diluted to 0.1×10^6/ml. 70 μl of cell solution was dispensed to each well of white Nunc 384-well plates, containing compound at the required concentration. […] The plates were covered to protect the reagents from light, and then incubated at room temperature for approximately 15 mins before reading them on a Viewlux.

[3] = at least once in the NFkB assay, A549 SPAP cells, read-out: pIC50 in the NFkB assay (converted)
[4] = at least once, examples listed as agonists in NFkB and MMTV assays, read-out: potency pIC50 in the NFKB assay (converted)

Row | SMILES | EC50 (Progesterone Receptor) [µM] | IC50 (glucocorticoid receptor) [µM] | Emax (GR [1]; A549 SPAP cells) [%] | IC50 (GR [1]; [3]) [µM] | IC50 (GR [1]; [4]) [µM] | Emax (GR [2]) [%]
1 | CCN(CC(O)(CNC(=O)c1cnn(-c2ccc(F)cc2)c1N)C(F)(F)F)C(=O)c1ncccc1Cl (racemic) [Example 3 (racemic), N-[2-[({[5-Amino-1-(4-fluorophenyl)-1H-pyrazol-4-yl]carbonyl]amino)methyl]-3,3,3-trifluoro-2-hydroxypropyl}-3-chloro-N-ethyl-2-Pyridinecarboxamide] | > 1 |  |  |  |  | 
2 | CCN(CC(O)(CNC(=O)c1cnn(-c2ccc(F)cc2)c1N)C(F)(F)F)C(=O)c1ccccc1F (racemic) [Example 4 (racemic), 5-Amino-N-[2-({ethyl[(2-fluorophenyl)carbonyl]amino}methyl)-3,3,3-trifluoro-2-hydroxypropyl]-1-(4-fluorophenyl)-1H-pyrazole-4-carboxamide] | > 1 | < 1 | ≥ 40 | < 1 | < 0.316 | ≥ 40
3 | CN(CC(O)(CNC(=O)c1cnn(-c2ccc(F)cc2)c1N)C(F)(F)F)C(=O)c1ccccc1F (racemic) [Example 6 (racemic), 5-amino-1-(4-fluorophenyl)-N-(3,3,3-trifluoro-2-{[[(2-fluorophenyl)car-bonyl](methyl)amino]methyl}-2-hydroxypropyl)-1H-pyrazole-4-carboxamide] | > 1 | < 1 | ≥ 40 | < 1 | < 0.316 | ≥ 40
4 | CN(CC(O)(CNC(=O)c1cnn(-c2ccc(F)cc2)c1N)C(F)(F)F)C(=O)c1ccccc1Cl (racemic) [Example 7 (racemic), 5-amino-N-(2-{[[(2-chlorophenyl)car-bonyl](methyl)amino]methyl}-3,3,3-trifluoro-2-hydroxypropyl)-1-(4-fluorophenyl)-1H-pyrazole-4-carboxamide] | > 1 | < 1 | ≥ 40 | < 1 | < 0.316 | ≥ 40
5 | CCN(CC(O)(CNC(=O)c1cnn(-c2ccc(F)cc2)c1N)C(F)(F)F)C(=O)c1cccc2cccnc12 (racemic) [Example 8 (racemic), N-{2-[({[5-amino-1-(4-fluorophenyl)-1H-pyrazol-4-yl]carbonyl}amino)methyl]-3,3,3-trifluoro-2-hydroxypropyl}-N-ethyl-8-quinolinecarboxamide] | > 1 |  | ≥ 40 | < 1 | < 0.316 | ≥ 40
6 | CCN(CC(O)(CNC(=O)c1cnn(-c2ccc(F)cc2)c1N)C(F)(F)F)C(=O)c1ccccc1Cl (racemic) [Example 16 (racemic), 5-amino-N-(2-{[[(2-chlorophenyl)car-bonyl](ethyl)amino]methyl}-3,3,3-trifluoro-2-hydroxypropyl)-1-(4-fluorophenyl)-1H-pyrazole-4-carboxamide] | > 1 |  |  |  |  | 
7 | Nc1c(C(=O)NCC(O)(CN(CCF)C(=O)c2ccccc2)C(F)(F)F)cnn1-c1ccc(F)cc1 (single isomer, unassigned) [Example 1 Enantiomer 1, 5-Amino-1-(4-fluorophenyl)-N-(3,3,3-trifluoro-2-{[(2-fluoroethyl)(phenylcarbonyl)amino]methyl}-2-hydroxypropyl)-1H-pyrazole-4-carboxamide] | > 1 | < 1 |  | < 1 |  | 
8 | CCN(CC(O)(CNC(=O)c1cnn(-c2ccc(F)cc2)c1N)C(F)(F)F)C(=O)c1ccccc1F (single isomer, unassigned) [Example 4 Enantiomer 1, 5-Amino-N-[2-({ethyl[(2-fluorophenyl)carbonyl]amino}methyl)-3,3,3-trifluoro-2-hydroxypropyl]-1-(4-fluorophenyl)-1H-pyrazole-4-carboxamide] | > 1 |  |  | < 1 |  | 
9 | CCN(CC(O)(CNC(=O)c1cnn(-c2ccc(F)cc2)c1N)C(F)(F)F)C(=O)c1ccccc1 (single isomer, unassigned) [Example 14 Enantiomer 1, 5-amino-N-(2-{[ethyl(phenylcar-bonyl)amino]methyl}-3,3,3-trifluoro-2-hydroxypropyl)-1-(4-fluorophenyl)-1H-pyrazole-4-carboxamide] | > 1 | < 1 |  |  |  | 
10 | CCN(CC(O)(CNC(=O)c1cnn(-c2ccc(F)cc2)c1N)C(F)(F)F)C(=O)c1ccccc1Cl (single isomer, unassigned) [Example 16 Enantiomer 1, 5-amino-N-(2-{[[(2-chlorophenyl)car-bonyl](ethyl)amino]methyl}-3,3,3-trifluoro-2-hydroxypropyl)-1-(4-fluorophenyl)-1H-pyrazole-4-carboxamide] | > 1 |  |  |  |  | 
